Reference: US20030096379A1, “Method for producing tryptamine derivatives” (priority 2001, published 2003)

T1: synAAAD (synthetic gene based on pkAAAD protein sequence) (Sus scrofa, UniProt P80041)
T1 construct: made in house; host or cells: E. coli (pET-15 vector)
T1 sequence (P80041 1-486): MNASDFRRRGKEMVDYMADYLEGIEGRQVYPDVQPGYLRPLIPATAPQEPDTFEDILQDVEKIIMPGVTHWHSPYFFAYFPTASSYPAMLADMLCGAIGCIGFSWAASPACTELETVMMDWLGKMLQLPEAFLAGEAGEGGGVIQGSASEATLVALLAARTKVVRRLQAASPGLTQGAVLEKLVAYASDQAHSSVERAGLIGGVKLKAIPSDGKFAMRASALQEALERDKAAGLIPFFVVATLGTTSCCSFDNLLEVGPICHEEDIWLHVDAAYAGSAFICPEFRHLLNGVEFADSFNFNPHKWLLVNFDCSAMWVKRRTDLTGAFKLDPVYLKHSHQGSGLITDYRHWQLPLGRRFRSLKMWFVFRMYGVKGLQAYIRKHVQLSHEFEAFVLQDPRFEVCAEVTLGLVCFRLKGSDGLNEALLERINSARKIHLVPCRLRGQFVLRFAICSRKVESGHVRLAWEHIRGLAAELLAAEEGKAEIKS

T2: pig kidney aromatic amino acid decarboxylase (pkAAAD) (Sus scrofa, UniProt P80041)
T2 construct: Frozen tissue was partially thawed in lysis buffer, then it was extracted and partially purified; from tissue; host or cells: pig kidney
T2 sequence (P80041 1-486): T1 sequence (P80041 1-486)

B1: synAAAD: enzyme from synthetic gene optimized for E. coli expression, based on the pkAAAD protein sequence (protein, UniProt P80041 1-486, looked up)
Aromatic-L-amino-acid …: T1 sequence (P80041 1-486)
modifications: codon-optimized synthetic gene
B2: pkAAAD: aromatic amino acid decarboxylase extracted from pig kidney tissue, E.C. 4.1.1.28 (protein, UniProt P80041 1-486, looked up)
Aromatic-L-amino-acid …: T1 sequence (P80041 1-486)

Assays:
tryptophanase (TnA) = target: T3, tryptophanase (TnA) (Escherichia coli, UniProt P0A853); assay type: biochemical, E. coli; set-up: key: +: a clear ninhydrin-positive spot at the Rf of standard tryptophan derivatives after 16-65 h; (+): a weak spot in the product region; −: no product observed; NR: experiment not run; conditions: indole derivative + L-serine + PLP, 37° C., 16-65 h, ninhydrin
T3 construct: made in house; host or cells: E. coli LMG194 (pBAD) or BL-21 (pET)
Description: (§1) A mixture containing 2 μmole of the indole derivative, 0.05 μmole of PLP and 50 μmol of L-serine in 40 mM KPi buffer in 8% v/v ethanol water, pH 7.5, was warmed to 37° C., then enzyme solution was added to give a final volume of 1 mL. Aliquots (100 μL) were quenched at intervals of 2, 6, and 24 hours or more in microcentrifuge capsules containing 25 μL of 6 M HCl. The quenched samples were evaporated in a Savant Speed-vac. The residues were resuspended in methanol/water (1:1, 50 μL) and analyzed by TLC on Silica gel GF254 plates alongside tryptophan and tryptamine standards, eluting with CH2Cl2/EtOH/H2O/HOAc 77:20:2:1. Products were visualized first by using short-wave UV light, then with ninhydrin spray reagent (1/1/98 w/v/v ninhydrin/HOAc/EtOH) followed by heating.
(§2) Substituted indoles were incubated with L-serine, PLP and enzyme (TrpBA or TnA) prior to TLC analysis as generally described in Example 6. Serine, which can be used instead of pyruvate and ammonia for tryptophan synthesis with TnA, was employed as the 3-carbon acid because pyruvate tended to obscure the tryptophan product spots when plates were visualized with ninhydrin. TnA-catalyzed formation of tryptophan was also faster when serine was the 3-carbon donor. Reaction rates for several substrates were also estimated by HPLC.
(§3) In Table 4, “+” indicates a clear ninhydrin-positive spot at the Rf of standard tryptophan derivatives after 16-65 h; “(+)” indicates a weak spot in the product region; “−” means no product observed, “NR” means experiment not run. ESMS=electrospray mass spectrometry. Unless otherwise indicated, the mass value given represents the singly-protonated molecular ion (M+1).

[1] = target: T4, E. coli DH5α tryptophan synthase (TrpBA) (Escherichia coli, UniProt P0A879); assay type: biochemical; set-up: key: +: a clear ninhydrin-positive spot at the Rf of standard tryptophan derivatives after 16-65 h; (+): a weak spot in the product region; −: no product observed; NR: experiment not run; conditions: indole derivative + L-serine + PLP, 37° C., 16-65 h, ninhydrin
T4 construct: made in house; host or cells: E. coli LMG194 (pBAD) or BL-21 (pET)
Description: as §1, §2, §3

[2] = target: T1, synAAAD (synthetic gene based on pkAAAD protein sequence); assay: Substrate screen for tryptophan decarboxylation, SynAAAD; assay type: biochemical; set-up: key: +: a clear ninhydrin-positive spot at the Rf of standard tryptophan derivatives after 16-65 h; (+): a weak spot in the product region; −: no product observed; NR: experiment not run; conditions: tryptophan derivative, PLP, pH 7.5, 37° C.
Description: A mixture containing 1 μmole of the tryptophan derivative, 0.05 μmole of PLP and 50 μmol of L-serine in 40 mM pH 7.5 KPi buffer was warmed to 37° C., then enzyme solution was added to give a final volume of 1 mL. Aliquots (100 HL) were quenched at intervals and were evaporated in a Savant Speed-vac as in Example 6. For TLC analysis, CH2Cl2/EtOH/H2O/HOAc 49:49:1:1 was used as the solvent. The plates were visualized with short-wave UV light and ninhydrin as in Example 6.
HPLC techniques were used to monitor the decarboxylation of substituted tryptophans. Mass spectral analysis of the collected HPLC peaks was used to confirm the identity of several tryptamine derivatives, as shown in Table 5.

[3] = target: T2, pig kidney aromatic amino acid decarboxylase (pkAAAD); assay: Substrate screen for tryptophan decarboxylation, pkAAAD; assay type: biochemical; set-up: key: +: a clear ninhydrin-positive spot at the Rf of standard tryptophan derivatives after 16-65 h; (+): a weak spot in the product region; −: no product observed; NR: experiment not run; conditions: tryptophan derivative, PLP, pH 7.5, 37° C.
[4] = Decarboxylase activity of the enzyme preparations (Ehrlich's reagent); assay type: biochemical
Description: Tryptophan synthase activity was assayed by monitoring the increase in absorbance at 290 nm of a mixture containing serine, indole and PLP (Higgins, W., et al., Biochemistry, 1979, 18, 4827). TnA-catalyzed tryptophan synthesis was also measured by the 290 nm assay, while the tryptophan lyase reaction rate was measured by monitoring the reduction in NADH in reaction mixtures containing L-tryptophan and lactate dehydrogenase, indicating the amount of pyruvate released. Tryptophan decarboxylase was assayed colorimetrically by monitoring the sabsorbance at 580 nm produced by serotonin (AAADs) or tryptamine (TDCs) following treatment of reaction aliquots with Ehrlich's reagent (4-N,N-(dimethyl)aminobenzaldehyde in ethanolic HCl; Nakazawa, H.; Kumagi, H.; Yamada, H. Biochem Biophys. Res. Commun., 1974, 61, 75-82). Serotonin could be detected with approximately 5-fold higher sensitivity by this method as compared with tryptamine. The Ehrlich reagent assay using a microtiter plate format for simultaneous analysis of multiple enzyme samples may also be used. HPLC analysis was performed on acid-quenched reaction aliquots by using a base-deactivated C8 reversed-phase support (Shandon Hypersil BD8). HPLC analysis of acid-quenched aliquots permitted calculation of a rate ratio of 4.5 to 1 for pkAAAD-catalyzed DOPA decarboxylation relative to that of L-5-hydroxytryptophan, in good agreement with the accepted ratio of approximately 5:1. (See Sourkes, T. L. Methods Enzymol., 1987, 142, 170-178, which is incorporated herein by reference.)
A mixture (0.95 mL) containing L-5-hydroxytryptophan (2 mM), PLP (0.25 mM) and pH 7.5 KPi buffer (44 mM) was warmed to 37° C., then 50 μL of enzyme was added. Reaction aliquots were quenched in microcentrifuge capsules containing 50 μL each of 6M HCl to quench the enzyme reaction at 2, 5, and 20 min. Quenched aliquots were heated at 50° C. for 40 min with 750 μL each of Ehrlich's reagent (2:24:74 w/v/v […]: conc HCl: ethanol). Absorbance was read at 580-nm and compared with standards of serotonin (10-250 μM) or tryptamine (50 to 2000 μM).
Decarboxylase enzyme activity was determined using L-5-hydroxytryptophan as the substrate unless otherwise stated.

[5] = Table 2, L-5-hydroxytryptophan as substrate

T4 sequence (P0A879 whole entry): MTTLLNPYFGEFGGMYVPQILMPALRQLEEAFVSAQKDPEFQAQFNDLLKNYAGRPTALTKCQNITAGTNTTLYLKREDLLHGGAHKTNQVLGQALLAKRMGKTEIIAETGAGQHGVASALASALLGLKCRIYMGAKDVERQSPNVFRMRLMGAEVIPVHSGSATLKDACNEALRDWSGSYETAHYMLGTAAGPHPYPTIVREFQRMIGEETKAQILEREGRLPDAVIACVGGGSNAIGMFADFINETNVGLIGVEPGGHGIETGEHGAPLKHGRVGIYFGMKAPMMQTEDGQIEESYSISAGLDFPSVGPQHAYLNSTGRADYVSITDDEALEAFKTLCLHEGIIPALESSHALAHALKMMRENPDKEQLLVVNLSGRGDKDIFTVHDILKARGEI
T4 sequence (P0A877 whole entry, further chain): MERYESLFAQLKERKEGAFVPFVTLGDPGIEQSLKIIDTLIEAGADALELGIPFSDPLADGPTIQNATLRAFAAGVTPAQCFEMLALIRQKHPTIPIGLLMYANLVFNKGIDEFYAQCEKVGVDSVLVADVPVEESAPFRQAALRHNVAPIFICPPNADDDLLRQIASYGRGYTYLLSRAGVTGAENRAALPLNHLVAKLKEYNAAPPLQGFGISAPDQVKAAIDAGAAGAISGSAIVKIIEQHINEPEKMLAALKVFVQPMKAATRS
T3 sequence (P0A853 whole entry): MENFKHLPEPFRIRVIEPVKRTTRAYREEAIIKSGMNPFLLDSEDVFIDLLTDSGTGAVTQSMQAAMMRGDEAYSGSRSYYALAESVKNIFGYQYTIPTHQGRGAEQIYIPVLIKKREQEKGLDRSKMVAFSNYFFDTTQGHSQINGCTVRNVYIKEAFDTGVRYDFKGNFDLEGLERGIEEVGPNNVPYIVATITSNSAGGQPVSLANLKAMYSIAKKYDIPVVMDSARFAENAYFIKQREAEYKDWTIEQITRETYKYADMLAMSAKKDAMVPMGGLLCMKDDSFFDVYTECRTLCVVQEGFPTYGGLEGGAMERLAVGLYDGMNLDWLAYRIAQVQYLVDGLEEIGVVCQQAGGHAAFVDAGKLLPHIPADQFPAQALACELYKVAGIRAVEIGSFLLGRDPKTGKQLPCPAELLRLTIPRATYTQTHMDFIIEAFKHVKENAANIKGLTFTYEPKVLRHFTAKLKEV

Row | Molecule | TnA (tryptophan product spot, TLC analysis) (tryptophanase (TnA)) | TrpBA (tryptophan product spot, TLC analysis) [1] | other results
1 | Oc1cccc2[nH]ccc12 [4-hydroxy] | + | + | 
2 | N[C@@H](Cc1c[nH]c2ccc(CO)cc12)C(=O)O [L-5-(hydroxymethyl)-trp] |  |  | SynAAAD (decarboxylation substrate screen) [2]: −
3 | O=[N+]([O-])c1ccc2[nH]ccc2c1 [5-nitro-] | − | − | 
4 | indoxyl acetate [4-acetoxy-[indoxyl acetate]] | + | + | 
5 | O=C(O)c1ccc2[nH]ccc2c1 [Indole-5-carboxylic acid] | − | − | 
6 | NC(Cc1c[nH]c2ncccc12)C(=O)O (racemic) [DL-7-aza-trp] |  |  | pkAAAD (decarboxylation substrate screen) [3]: −; SynAAAD (decarboxylation substrate screen) [2]: −
7 | Nc1ccc2[nH]ccc2c1 [5-amino-] | − | − | 
8 | Clc1cccc2cc[nH]c12 [7-chloro] | − | + | 
9 | N#Cc1ccc2[nH]ccc2c1 [5-cyano-] | − | − | 
10 | O=C(O)c1cc2cc(Br)ccc2[nH]1 [5-bromoindole-2-carboxylic acid] |  | − | 
11 | Fc1ccc2cc[nH]c2c1 [6-fluoroindole] | (+) | + | 
12 | Nc1cccc2[nH]ccc12 [4-amino-] | + | + | 
13 | Cc1ccc2[nH]c(C)cc2c1 [2,5-dimethyl-] | − | + | 
14 | Oc1ccc2[nH]ccc2c1 [5-hydroxy-] | + | + | 
15 | O=[N+]([O-])c1cccc2[nH]ccc12 [4-nitro-] | − | − | 
16 | Clc1ccc2[nH]ccc2c1 [5-chloro-] | + | + | 
17 | Clc1ccc2cc[nH]c2c1 [6-chloroindole] | + | − | 
18 | COc1ccc2[nH]cc(CC(N)C(=O)O)c2c1 (racemic) [DL-5-methoxy-trp] |  |  | SynAAAD (decarboxylation substrate screen) [2]: (+)
19 | COc1ccc2cc[nH]c2c1 [6-methoxyindole] | (+) | + | 
20 | COc1ccc2[nH]c(C)cc2c1 [5-methoxy-2-methyl-] | − | + | 
21 | B1 |  |  | Crude specific activity [4, 5]: 0.18 units/mg; Purified specific activity [4, 5]: 0.3 Units/mg; Crude specific activity ([4]; Table 3, decarboxylases): 0.18 units/mg; specific activity in crude extracts ([4]; crude extracts): 0.1-0.2 units/mg
22 | B2 |  |  | Crude specific activity [4, 5]: 0.05 units/mg; Purified specific activity [4, 5]: 0.2 Units/mg; Crude specific activity ([4]; Table 3, decarboxylases): 0.05 units/mg
